For this assay, the target named is T1, IL-17A/A (Homo sapiens, UniProt Q16552).
T1 construct: purchased Genscript Z03228
T1 sequence (Q16552 24-155): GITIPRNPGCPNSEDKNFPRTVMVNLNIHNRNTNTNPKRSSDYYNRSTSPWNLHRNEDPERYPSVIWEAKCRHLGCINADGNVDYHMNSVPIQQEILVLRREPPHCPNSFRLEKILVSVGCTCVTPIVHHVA
Nature of the assay: IL-17A/A HEK-Blue cell assay. In kind it is cell-based. As to conditions: HEK-Blue IL-17A reporter cell line (HEK 293), IL-17A/A stimulation, 20 hours incubation, SEAP read at A630. In short, it runs like this:
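HEK293 reporter cells expressing IL-17RA, IL-17RC and Act1 were given titrated compound (top final 10, 1 or 0.3 uM; 0.1% DMSO) right before IL-17A/A and incubated 20 hours. NFκB-driven SEAP in the media was read at A630 with Quanti-Blue, and IC50 came from a 4-parameter nonlinear fit.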

The structures appear in SMILES notation. pIC50: −log10 of the molar value. A value given as a limit tells only on which side of the number the result lay.

Consider twelve molecules from patent US20250346602A1, “LACTAM SUBSTITUTED IMIDAZOPYRIDAZINE IL-17A MODULATORS AND USES THEREOF” (DICE ALPHA, INC., priority 2022, published 2025).

Consider `O=C(N[C@H](c1cn2nc(CC3C[C@@H](C(F)(F)F)CNC3=O)ccc2n1)C1CCC(F)(F)CC1)c1ccnn1CC(F)(F)F` (stereo partly drawn) [Compound 105, N-((1S)-(4,4-difluorocyclohexyl)(6-(((5R)-2-oxo-5-(trifluoromethyl)piperidin-3-yl)methyl)imidazo[1,2-b]pyridazin-2-yl)methyl)-1-(2,2,2-trifluoroethyl)-1H-pyrazole-5-carboxamide], for which the pIC50 (in general, −log10 of the IC50, conventionally taken in molar units) was 6.00 to 7.00.
For the molecule `CCn1nccc1C(=O)NC(c1cn2nc(CC3C(=O)NCC4CC43)ccc2n1)C1CCC(C)CC1` (single isomer, unassigned) [Compound 47], the pIC50 was less than 6.00.
Under `CCn1nccc1C(=O)N[C@H](c1cn2ncc(CC3CCCNC3=O)cc2n1)C1CCCCCC1` (mixture of isomers) [Compound 206, N-((1S)-cycloheptyl(7-((2-oxopiperidin-3-yl)methyl)imidazo[1,2-b]pyridazin-2-yl)methyl)-1-ethyl-1H-pyrazole-5-carboxamide] stands less than 6.00; under `CCn1nccc1C(=O)NC(c1cn2ncc(CC3CC(F)(F)CNC3=O)cc2n1)C1CCC(C)CC1` (single isomer, unassigned) [Compound 211], 6.00 to 7.00.
Under `CCN(C)c1cc2nc([C@@H](NC(=O)c3ccnn3CC)C3CCC(F)(F)CC3)cn2nc1CC1C[C@@H](C(F)(F)F)CNC1=O` (single isomer, unassigned) [Compound 88] stands more than 7.00; under `CCn1nccc1C(=O)NC(c1cn2nc(CC3CC(F)(F)CNC3=O)ccc2n1)C1CCC(C)CC1` (single isomer, unassigned) [Compound 27], 6.00 to 7.00; under `O=C1NC[C@H](C(F)(F)F)CC1Cc1ccc2nc([C@@H](NC(=O)C3(F)CC3)C3CCC(F)(F)CC3)cn2n1` (stereo partly drawn) [Compound 139, N-((1S)-(4,4-difluorocyclohexyl)(6-(((5R)-2-oxo-5-(trifluoromethyl)piperidin-3-yl)methyl)imidazo[1,2-b]pyridazin-2-yl)methyl)-1-fluorocyclopropane-1-carboxamide], less than 6.00.
Under `CCn1nccc1C(=O)N[C@H](c1cn2nc(CC3C[C@@H](C(F)(F)F)CNC3=O)c(N(C)C3CC3)cc2n1)C1CCC(F)(F)CC1` (single isomer, unassigned) [Compound 90] stands 6.00 to 7.00; under `Cc1nonc1C(=O)N[C@H](c1cn2nc(CC3CCCNC3=O)ccc2n1)C1CCCCCC1` (stereo partly drawn) [Compound 2, N-((1S)-cycloheptyl(6-((2-oxopiperidin-3-yl)methyl)imidazo[1,2-b]pyridazin-2-yl)methyl)-4-methyl-1,2,5-oxadiazole-3-carboxamide], less than 6.00.
As for `CCn1nccc1C(=O)N[C@H](c1cn2ncc(CC3CCNC3=O)cc2n1)C1CCCCCC1` (stereo partly drawn) [Compound 203, N-((1 S)-cycloheptyl(7-((2-oxopyrrolidin-3-yl)methyl)imidazo[1,2-b]pyridazin-2-yl)methyl)-1-ethyl-1H-pyrazole-5-carboxamide], the pIC50 is less than 6.00.
Under `CCCn1nccc1C(=O)N[C@H](c1cn2nc(CC3C[C@@H](C(F)(F)F)CNC3=O)ccc2n1)C1CCC(F)(F)CC1` (stereo partly drawn) [Compound 128, N-((1S)-(4,4-difluorocyclohexyl)(6-(((5R)-2-oxo-5-(trifluoromethyl)piperidin-3-yl)methyl)imidazo[1,2-b]pyridazin-2-yl)methyl)-1-propyl-1H-pyrazole-5-carboxamide] stands 6.00 to 7.00.
Under `O=C(N[C@H](c1cn2nc(CC3C[C@@H](C(F)(F)F)CNC3=O)ccc2n1)C1CCC(F)(F)CC1)c1conc1C1(F)CC1` (stereo partly drawn) [Compound 122, N-((1S)-(4,4-difluorocyclohexyl)(6-(((5R)-2-oxo-5-(trifluoromethyl)piperidin-3-yl)methyl)imidazo[1,2-b]pyridazin-2-yl)methyl)-3-(1-fluorocyclopropyl)isoxazole-4-carboxamide] stands 6.00 to 7.00.
